Values of other authors as cited in patent publication US20170281607A1, “PHARMACEUTICAL COMPOSITIONS AND METHODS FOR THE TREATMENT OF DIABETES” (University of Limerick, priority 2016, published 2017).

Conditions: in vivo

In the case of COc1ccc2c(c1)[nH]c1c(C)nccc12 [harmine, 7-Methoxy-1-methyl-9H-pyrido[3,4-b]indole], the half-life is given as 1 to 3 h.
